This note sets out measurements from US8268848B2, “Cyclopropane compound” (Eisai R&D Management Co., Ltd., priority 2010, dated 2012).

By IC50 is commonly meant the point on the concentration scale where inhibition reaches its midpoint.

Molecules are shown by their SMILES. Like-named read-outs stand apart in the source and are kept apart here.

In assay [1] the target is T1, OX1 (Homo sapiens, UniProt O43613).
T1 sequence (O43613 1-425): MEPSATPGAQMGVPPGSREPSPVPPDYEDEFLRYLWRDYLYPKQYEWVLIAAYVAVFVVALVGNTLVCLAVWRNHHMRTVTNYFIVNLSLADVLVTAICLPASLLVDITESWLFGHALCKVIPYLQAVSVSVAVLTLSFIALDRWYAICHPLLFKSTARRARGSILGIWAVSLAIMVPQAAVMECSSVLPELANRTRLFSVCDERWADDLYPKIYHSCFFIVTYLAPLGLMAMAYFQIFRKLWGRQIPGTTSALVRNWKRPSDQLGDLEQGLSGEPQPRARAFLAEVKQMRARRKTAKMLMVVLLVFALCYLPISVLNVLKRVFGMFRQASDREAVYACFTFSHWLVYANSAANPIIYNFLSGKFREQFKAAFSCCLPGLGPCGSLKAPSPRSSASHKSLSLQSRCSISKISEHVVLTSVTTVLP
As to the kind of experiment: Measurement of orexin receptor-binding ability ([125I]-OX-A, cell membranes, OX1). More on the design: expressed in transfected cells; host or cells: CHO cells (membrane preparation).

Assay [2] addresses T2, OX2 (Homo sapiens, UniProt O43614).
T2 sequence (O43614 1-444): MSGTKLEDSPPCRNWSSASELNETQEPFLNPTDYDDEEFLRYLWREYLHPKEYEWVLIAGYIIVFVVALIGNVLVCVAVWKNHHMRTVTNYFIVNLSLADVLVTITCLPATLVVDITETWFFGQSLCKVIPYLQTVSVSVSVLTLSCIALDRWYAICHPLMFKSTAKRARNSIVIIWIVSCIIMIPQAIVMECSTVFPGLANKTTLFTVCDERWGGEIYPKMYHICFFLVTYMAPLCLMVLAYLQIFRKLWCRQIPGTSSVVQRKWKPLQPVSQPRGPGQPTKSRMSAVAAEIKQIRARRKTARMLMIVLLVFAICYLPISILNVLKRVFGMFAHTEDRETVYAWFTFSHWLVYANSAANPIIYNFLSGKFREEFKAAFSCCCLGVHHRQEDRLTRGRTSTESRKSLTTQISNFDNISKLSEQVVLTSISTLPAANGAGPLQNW
As to the kind of experiment: Measurement of orexin receptor-binding ability ([125I]-OX-A, cell membranes, OX2). More on the design: expressed in transfected cells; host or cells: CHO cells (membrane preparation). As to conditions: membranes of recombinant CHO cells expressing OX2, 0.2 nM [125I]-OX-A.

The mark [3] stands for this setting: membranes of recombinant CHO cells expressing OX1, 0.2 nM [125I]-OX-A, read-out: OX1 (IC50).

For `Cc1ncc(OCC2(c3ccc(Cl)cc3)CC2C(=O)Nc2ccc(Cl)cn2)c(C)n1` (centres unmarked) [Example 158], the results for the IC50 in assay [1] (setting [3]) and in assay [2] (read-out: OX2 (IC50)) were 180 nM and 27 nM, respectively.
For `Cc1ncc(OCC2(c3ccc(Cl)cc3)CC2C(=O)Nc2ccc(C#N)cn2)c(C)n1` (centres unmarked) [Example 159], the IC50 is 624 nM in assay [1] (setting [3]) and 62 nM in assay [2] (read-out: OX2 (IC50)).
With `Cc1ncc(OCC2(c3ccc(Cl)cc3)CC2C(=O)Nc2cccnc2)c(C)n1` (centres unmarked) [Example 160], the IC50 in assay [1] (setting [3]) was found to be 389 nM; in assay [2] (read-out: OX2 (IC50)), 28 nM.
Regarding `Cc1ncc(OCC2(c3cccc(F)c3F)CC2C(=O)Nc2ccc(F)cn2)c(C)n1` (centres unmarked) [Example 162, 2-(2,3-difluorophenyl)-2-{[(2,4-dimethylpyrimidin-5-yl)oxy]methyl}-N-(5-fluoropyridin-2-yl)cyclopropanecarboxamide], the IC50 in assay [1] was 65 nM; in assay [2] (OX2 (IC50) nM) it was 13 nM.
For the compound `Cc1ncc(OCC2(c3cc(F)ccc3F)CC2C(=O)Nc2ccc(F)cn2)c(C)n1` (centres unmarked) [Example 163, 2-(2,5-difluorophenyl)-2-{[(2,4-dimethylpyrimidin-5-yl)oxy]methyl}-N-(5-fluoropyridin-2-yl)cyclopropanecarboxamide], the IC50 in assay [1] is less than 20 nM; in assay [2] (OX2 (IC50) nM), 10 nM.
Consider `Cc1ncc(OC[C@@]2(c3ccc(F)c(F)c3)C[C@H]2C(=O)Nc2ccc(F)cc2)c(C)n1` [Example 165, (1R,2S)-2-(3,4-difluorophenyl)-2-{[(2,4-dimethylpyrimidin-5-yl)oxy]methyl}-N-(4-fluorophenyl)cyclopropanecarboxamide], for which the figures for the IC50 in assay [1] (setting [3]) and in assay [2] (read-out: OX2 (IC50)) were 29 nM and 7 nM, respectively.
On to `Cc1ncc(OC[C@@]2(c3ccc(F)c(F)c3)C[C@H]2C(=O)Nc2ccccn2)c(C)n1` [Example 166, (1R,2S)-2-(3,4-difluorophenyl)-2-{[(2,4-dimethylpyrimidin-5-yl)oxy]methyl}-N-(pyridin-2-yl)cyclopropanecarboxamide], for which the IC50 in assay [1] stood at 50 nM; in assay [2] (OX2 (IC50) nM) it was 7 nM.
Consider `Cc1ncc(OC[C@@]2(c3ccc(F)c(F)c3)C[C@H]2C(=O)Nc2ccc(C#N)cn2)c(C)n1` [Example 167, (1R,2S)-N-(5-cyanopyridin-2-yl)-2-(3,4-difluorophenyl)-2-{[(2,4-dimethylpyrimidin-5-yl)oxy]methyl}cyclopropanecarboxamide], for which the IC50 was determined as 38 nM in assay [1] and 10 nM in assay [2] (OX2 (IC50) nM).
In the case of `Cc1ncc(OC[C@@]2(c3ccc(F)c(F)c3)C[C@H]2C(=O)Nc2ccc(Cl)cn2)c(C)n1` [Example 168, (1R,2S)-N-(5-chloropyridin-2-yl)-2-(3,4-difluorophenyl)-2-{[(2,4-dimethylpyrimidin-5-yl)oxy]methyl}cyclopropanecarboxamide], the IC50 in assay [1] came to 15 nM; in assay [2] (OX2 (IC50) nM), 4 nM.
In the same order, the values of `Cc1ncc(OC[C@@]2(c3ccc(F)c(F)c3)C[C@H]2C(=O)Nc2ccc(F)cn2)c(C)n1` [Example 169, (1R,2S)-2-(3,4-difluorophenyl)-2-{[(2,4-dimethylpyrimidin-5-yl)oxy]methyl}-N-(5-fluoropyridin-2-yl)cyclopropanecarboxamide] are 14 nM and 4 nM.
`Cc1ncc(OC[C@@]2(c3ccc(F)c(F)c3)C[C@H]2C(=O)Nc2ccc(F)cc2F)c(C)n1` [Example 171]: the 50% inhibitory concentration (IC50) in assay [1] (setting [3]) came out at 43 nM; in assay [2] (read-out: OX2 (IC50)), 11 nM.
As for `COc1cc(NC(=O)[C@@H]2C[C@@]2(COc2cnc(C)nc2C)c2ccc(F)c(F)c2)ncc1F` [Example 173, (1R,2S)-2-(3,4-difluorophenyl)-2-{[(2,4-dimethylpyrimidin-5-yl)oxy]methyl}-N-(5-fluoro-4-methoxypyridin-2-yl)cyclopropanecarboxamide], the half-maximal inhibitory concentration (IC50) in assay [1] (setting [3]) amounted to 3.6 nM; in assay [2] (read-out: OX2 (IC50)) it was 3.3 nM.
With `Cc1ccc(C2(COc3cnc(C)nc3C)CC2C(=O)Nc2ccc(F)cn2)cc1` (centres unmarked) [Example 174], the IC50 in assay [1] stood at 33 nM; in assay [2] (OX2 (IC50) nM), 55 nM.
Turning to `Cc1ccc(C2(COc3cnc(C)nc3C)CC2C(=O)Nc2ccc(Cl)cn2)cc1` (centres unmarked) [Example 175], the IC50 was determined as 62 nM in assay [1] and 35 nM in assay [2] (OX2 (IC50) nM).
Take `Cc1cccc(C2(COc3cnc(C)nc3C)CC2C(=O)Nc2ccc(F)cn2)c1` (centres unmarked) [Example 176]: the values for the IC50 in assay [1] and in assay [2] (OX2 (IC50) nM) were 137 nM and 26 nM, respectively.
On to `Cc1cccc(C2(COc3cnc(C)nc3C)CC2C(=O)Nc2cccnc2)c1` (centres unmarked) [Example 177], for which the results for the IC50 in assay [1] (setting [3]) and in assay [2] (read-out: OX2 (IC50)) were 334 nM and 84 nM, respectively.
Regarding `Cc1ncc(OCC2(c3ccccc3C)CC2C(=O)Nc2ccc(F)cn2)c(C)n1` (centres unmarked) [Example 179], the IC50 came out at 167 nM in assay [1] and 29 nM in assay [2] (OX2 (IC50) nM).
As for `Cc1ncc(OCC2(c3ccccc3C)CC2C(=O)Nc2cccnc2)c(C)n1` (centres unmarked) [Example 180], the half-maximal inhibitory concentration (IC50) in assay [1] (setting [3]) amounted to 231 nM; in assay [2] (read-out: OX2 (IC50)), 33 nM.
`COc1ccc(C2(COc3cnc(C)nc3C)CC2C(=O)Nc2ccc(F)cn2)cc1` (centres unmarked) [Example 181]: the values for the half-inhibitory concentration (IC50) in assay [1] and in assay [2] (OX2 (IC50) nM) were 118 nM and 100 nM, respectively.
`COc1ccc(C2(COc3cnc(C)nc3C)CC2C(=O)Nc2ccc(Cl)cn2)cc1` (centres unmarked) [Example 182]: the half-inhibitory concentration (IC50) in assay [1] (setting [3]) was 99 nM; in assay [2] (read-out: OX2 (IC50)), 21 nM.
Turning to `COc1cccc(C2(COc3cnc(C)nc3C)CC2C(=O)Nc2ccc(C#N)cn2)c1` (centres unmarked) [Example 183], the concentration for half-maximal inhibition (IC50) in assay [1] was found to be 337 nM; in assay [2] (OX2 (IC50) nM) it was 42 nM.
For the compound `COc1cccc(C2(COc3cnc(C)nc3C)CC2C(=O)Nc2cccnc2)c1` (centres unmarked) [Example 184], the IC50 was 784 nM in assay [1] (setting [3]) and 21 nM in assay [2] (read-out: OX2 (IC50)).
For `COc1cccc(C2(COc3cnc(C)nc3C)CC2C(=O)Nc2ccc(Cl)cn2)c1` (centres unmarked) [Example 185], the IC50 amounted to 24 nM in assay [1] and 7 nM in assay [2] (OX2 (IC50) nM).
Consider `COc1cccc([C@]2(COc3cnc(C)nc3C)C[C@H]2C(=O)Nc2cc(C)c(F)cn2)c1` [Example 189, (1R,2S)-2-{[(2,4-dimethylpyrimidin-5-yl)oxy]methyl}-N-(5-fluoro-4-methylpyridin-2-yl)-2-(3-methoxyphenyl)cyclopropanecarboxamide], for which the half-inhibitory concentration (IC50) was 7 nM in assay [1] (setting [3]) and 4.1 nM in assay [2] (read-out: OX2 (IC50)).
For `COc1cccc([C@]2(COc3cnc(C)nc3C)C[C@H]2C(=O)Nc2ccc(F)c(F)c2)c1` [Example 190, (1R,2S)-N-(3,4-difluorophenyl)-2-{[(2,4-dimethylpyrimidin-5-yl)oxy]methyl}-2-(3-methoxyphenyl)cyclopropanecarboxamide], the IC50 amounted to 11 nM in assay [1] (setting [3]) and 5 nM in assay [2] (read-out: OX2 (IC50)).
Regarding `COCc1nc(C)ncc1OC[C@@]1(c2cccc(F)c2)C[C@H]1C(=O)Nc1ccc(F)cc1` [Example 192, (1R,2S)-2-(3-fluorophenyl)-N-(4-fluorophenyl)-2-{[(4-methoxymethyl-2-methylpyrimidin-5-yl)oxy]methyl}cyclopropanecarboxamide], the IC50 in assay [1] (setting [3]) was found to be 12 nM; in assay [2] (read-out: OX2 (IC50)) it was 5 nM.
With `COCc1nc(C)ncc1OC[C@@]1(c2cccc(F)c2)C[C@H]1C(=O)Nc1ccccn1` [Example 193, (1R,2S)-2-(3-fluorophenyl)-2-{[(4-methoxymethyl-2-methylpyrimidin-5-yl)oxy]methyl}-N-(pyridin-2-yl)cyclopropanecarboxamide], the IC50 in assay [1] turned out to be 36 nM; in assay [2] (OX2 (IC50) nM) it was 8 nM.
In the case of `COCc1nc(C)ncc1OC[C@@]1(c2cccc(F)c2)C[C@H]1C(=O)Nc1ccc(F)c(F)c1` [Example 194, (1R,2S)-N-(3,4-difluorophenyl)-2-(3-fluorophenyl)-2-{[(4-methoxymethyl-2-methylpyrimidin-5-yl)oxy]methyl}cyclopropanecarboxamide], the IC50 turned out to be 7 nM in assay [1] (setting [3]) and 3 nM in assay [2] (read-out: OX2 (IC50)).
